# In US20110281814A1, “METHODS AND COMPOSITIONS FOR TREATING BREAST CANCER” (Genzyme Corporation, priority 2009, published 2011):
# Read-outs that look alike come from different tables or passages of the source.
# Key:
# [1] = test system: MDA-MB-231 human breast cancer cells admixed with human mesenchymal stem (MSC) cells; assay: Efficacy of AMD3465 in MDA-MB-231+MSC breast cancer model (Example 1); type: in vivo, SCID mice; settings: vs PBS control, FIG. 1
# Experimental: The MSC cells provide stromal support to the MDA-MB-231 cells and enhance tumor growth and metastasis via SDF-1α/CXCL12 and RANTES pathways.
# Group 2 was given intraperitoneal injections of anti-human SDF-1α/CXCL12 monoclonal antibody three times a week (Monday, Wednesday and Friday) for six weeks at 100 μg per animal.
# [2] = test system: established MDA-MB-231 tumors; settings: for rate of tumor growth: FIG. 3A; for mean survival (Kaplan-Meier): FIG. 3B
# Experimental: Four groups of 6- to 8-week-old SCID mice (8 animals each) were injected subcutaneously with 1×10^6 MDA-MB-231 cells. At the start of dosing (about 21 days post-injection), the tumor volume was approximately 100 mm^3.
# The size of the tumors was measured approximately every five days, beginning on day 21 post-injection. Animals were euthanized when the tumor volume reached approximately 1000 mm^3. The time course of the average tumor volume is plotted for each experimental group in FIG. 3A.
# [3] = test system: MDA-MB-231 cells admixed with MSC cells; settings: presence of MSC cells, FIG. 2A
# Experimental: (§1) Six groups of 6- to 8-week-old SCID mice (6 animals each) were injected subcutaneously with 1×10^6 MDA-MB-231 cells. Groups 4-6 were further injected with 1×10^6 MSC cells admixed with the MDA-MB-231 cells.
# (§2) The size of the tumors was measured approximately every five days, beginning on day 15 post-injection. Animals were euthanized when the tumor volume reached approximately 1000 mm^3. The time course of the average tumor volume is plotted for each experimental group in FIGS. 2A and 2B.
# MDA-MB-231 cells = settings: AMD3465 5 or 10 mg/kg i.p. MWF from 7 days post-injection; absence of MSC cells; FIG. 2B
# Experimental: as §1, §2
# breast cancer = settings: mouse models of breast cancer; literature; cited from earlier work
# murine 4T1 cells = settings: Smith et al. 2004, cited from earlier work
# established 4T1 tumors = test system: established 4T1 tumors
# From the text: The 4T1 cell line (available from the […], Manassas, Va.) was derived from a spontaneously arising BALB/c mammary tumor and is commonly used as a syngeneic mouse model of metastatic breast cancer. When introduced orthotopically, the 4T1 line grows rapidly at the primary site and forms metastases in lungs, liver, bone and brain over a period of 3-6 weeks. When introduced intravenously or arterially, metastases are apparent in the same organs after 1-2 weeks. The rapid and efficient metastasis to organs affected in human breast cancer makes the 4T1 model an excellent mouse model for the study of metastatic progression of breast cancer in humans.
# Three groups of 6- to 8-week-old SCID mice (6 animals each) were injected subcutaneously with 2×10^5 4T1 cells. At the start of dosing (about 14 days post-injection), the tumor volume was approximately 100 mm^3.
# The size of the tumors was measured approximately every four days, beginning on day 10 post-injection. Animals were euthanized when the tumor volume reached approximately 1000 mm^3. […] The time course of the average tumor volume is plotted for each experimental group in FIG. 4A.
# MDA-MB-231 tumors [4] = settings: for potentiation of the effect of doxorubicin on tumor growth: three weeks from day 28, vs doxorubicin alone, FIG. 5
# Experimental: Four groups of 6- to 8-week-old SCID mice (6 animals each) were injected subcutaneously with 1×10^6 MDA-MB-231 cells. At the start of dosing (about 28 days post-injection), the tumor volume was approximately 100 mm^3. Beginning approximately 28 days after the injection, Groups 2-4 were administered intraperitoneal injections of doxorubicin once a week (Monday) for three weeks at 2 mg/kg body weight.
# The size of the tumors was measured approximately every six days, beginning on day 21 post-injection. Animals were euthanized when the tumor volume reached approximately 1000 mm^3. The time course of the average tumor volume is plotted for each experimental group in FIG. 5.
# [5] = disclosed in PCT Pub. No. WO 00/045814; cited from earlier work
# MDA-MB-231 tumors [6] = test system: MDA-MB-231 tumors
# Experimental: Three groups of 6- to 8-week-old SCID mice (6 animals each) were injected subcutaneously with 2×10^6 MDA-MB-231 cells. At the start of dosing (about 14 days post-injection), the tumor volume was approximately 100 mm^3. Beginning approximately 14 days after the injection, Groups 2 and 3 were administered intraperitoneal injections of doxorubicin once a week (Monday) for the duration of the study at 1 mg/kg body weight.
# The size of the tumors was measured approximately every three days, beginning on day 21 post-injection. Animals were euthanized when the tumor volume reached approximately 1000 mm^3. The time course of the average tumor volume is plotted for each experimental group in FIG. 6A.
# [7] = test system: SDF-1α/CXCL12-mediated transactivation of HER2/neu; settings: MDA-MB-361 breast cancer cells, in vitro; Cabioglu et al. 2005; cited from earlier work
# [8] = AMD3100 1.25 mg/kg s.c. MWF for two weeks, FIG. 4A
# [9] = AMD3100 […] + doxorubicin 2 mg/kg
# [10] = AMD3100 […] + doxorubicin 1 mg/kg
compound,measurement,setting,value
c1ccc(CNCc2ccc(CN3CCCNCCNCCCNCC3)cc2)nc1 [AMD3465],rate of tumor growth,[1]; AMD3465 5 mg/kg i.p. MWF for six weeks from 48 hours post-injection,significantly (p=0.07) decreased the rate of tumor growth
same,rate of tumor growth,[1]; AMD3465 10 mg/kg i.p. MWF for six weeks from 48 hours post-injection,not at 10 mg/kg
same,rate of tumor growth,[2]; AMD3465 5 mg/kg i.p. MWF from about 21 days post-injection,not at 5 or 10 mg/kg
same,mean survival (Kaplan-Meier),[2]; AMD3465 5 mg/kg,not at 5 or 10 mg/kg
same,rate of tumor growth,[2]; AMD3465 10 mg/kg i.p. MWF from about 21 days post-injection,not at 5 or 10 mg/kg
same,mean survival (Kaplan-Meier),[2]; AMD3465 10 mg/kg,not at 5 or 10 mg/kg
same,rate of tumor growth,[3]; AMD3465 5 mg/kg i.p. MWF from 7 days post-injection,significantly (p=0.024) decreased the rate of tumor growth
same,rate of tumor growth,[3]; AMD3465 10 mg/kg i.p. MWF from 7 days post-injection,not at 10 mg/kg
same,rate of tumor growth,MDA-MB-231 cells,no statistically significant effect
TN14003,metastasis,breast cancer,reduce metastasis
same,primary tumor growth,breast cancer,reduce primary tumor growth
c1cc(CN2CCCNCCNCCCNCC2)ccc1CN1CCCNCCNCCCNCC1 [AMD3100],growth onset of 4T1 cells in the lung,murine 4T1 cells,significantly delayed the growth onset
same,overall survival,murine 4T1 cells; mice with experimental lung metastases,did not appear to improve overall survival
same,leveling off of tumor growth,established 4T1 tumors; [8],largely leveled off by day 26 post-injection
same,onset of tumor growth,established 4T1 tumors; [8],delayed by approximately one week
same,rate of tumor growth,established 4T1 tumors; [8],significantly decreased the rate of tumor growth
same,mean survival (Kaplan-Meier),"established 4T1 tumors; AMD3100 1.25 mg/kg, FIG. 4B",increased the mean survival
same,potentiation of the effect of doxorubicin on tumor growth,MDA-MB-231 tumors [4]; AMD3100 1.25 mg/kg s.c. MWF + doxorubicin 2 mg/kg i.p. weekly,not at 1.25 mg/kg
same,leveling off of tumor growth,MDA-MB-231 tumors [4]; [9],leveled off by day 92 post-injection
same,onset of tumor growth,MDA-MB-231 tumors [4]; [9],delayed by several weeks
same,potentiation of the effect of doxorubicin on tumor growth,MDA-MB-231 tumors [4]; AMD3100 […] s.c. MWF + doxorubicin 2 mg/kg i.p. weekly,potentiated the effect of 2 mg/kg doxorubicin on the tumor growth
same,white blood cell count,[5],increasing the white blood cell count
same,leveling off of tumor growth,MDA-MB-231 tumors [6]; [10],leveled off by day 50 post-injection
same,onset of tumor growth,MDA-MB-231 tumors [6]; [10],delayed by about two weeks
same,rate of tumor growth compared to doxorubicin alone,MDA-MB-231 tumors [6]; [10],significantly (p=0.04) decreased
same,mean survival (Kaplan-Meier) compared to doxorubicin alone,"MDA-MB-231 tumors [6]; AMD3100 […] + doxorubicin 1 mg/kg, FIG. 6B",significantly (p=0.07) increased the mean survival
same,potentiation of the effect of doxorubicin on tumor growth,"MDA-MB-231 tumors [6]; AMD3100 […] s.c. MWF + doxorubicin 1 mg/kg i.p. weekly, duration of study from day 14, FIG. 6A",significantly potentiated the effect of 1 mg/kg doxorubicin on the tumor growth
same,SDF-1α/CXCL12-mediated transactivation of HER2/neu,[7],inhibit
